Where two headings read alike, the source gives them in different places. Marks after values point to notes of the source that are not given here.
Experiments:
[1] = test system: K. pneumoniae 50732159 (No MBL); assay: Microbroth dilution MIC of meropenem with/without inhibitor; assay type: cell-based; conditions: inhibitor 25 mg/L
Description: (§1) • Plate bacterial strain(s) on appropriate media: • Gram-negative bacteria with ESBLs or carbapenemases: green agar plates with 100 mg/L ampicillin • Gram-negative bacteria without β-lactamases: green agar plates • Gram-positive bacteria (Staphylococci and Enterococci): blood agar plates • Incubate o.n. at 37° C. […] (Should be used within 15 min of preparation). • Dilute the 0.5 McFarland suspension 1:100 into MH broth. […] Plate 10 μl of the dilution on MH agar plates (×2). Incubate o.n. at 37° C., count the colonies and calculate the final CFU/ml inoculum in the plate by multiplying the average number of colonies with 10000 and divide by 2. The final inoculum should be between 3-7×10^5 CFU/ml. • Add 50 μl of the prepared bacterial suspension to each well in the microtiter plate except negative growth control. Preparation of Compounds/Antibiotics • Calculate the desired concentration-range and volume of the compounds/antibiotics in the assay. […] Dilute the stock solution in MH broth. Make subsequent 2-fold dilutions in MH broth of the desired concentrations if a concentration range is to be tested (remember the extra dilution factor in the assay plate). Always include extra volume for pipetting. Take into consideration stock solutions that are made in buffers that have an effect on bacterial growth (e.g. DMSO).

[2] = test system: P. aeruginosa 50808021 (No MBL); assay: as above; assay type: cell-based; conditions: inhibitor 25 mg/L
Description: as §1

[3] = test system: P. aeruginosa 50692172 (NDM-1); assay: as above; assay type: cell-based
Description: as §1

K. pneumoniae K66-45 = assay type: cell-based; conditions: inhibitor 25 mg/L
Description: After plating and grown overnight at 37° C., only single colonies, ignoring any touching the edges of the plate, were counted.
10^9 CFU K66-45 (Mueller-Hinton broth, no selection) was plated and grown overnight, 37° C. Only single colonies, ignoring any touching the edges of the plate, were counted.

[4] = test system: P. aeruginosa K34-7 (VIM-2); assay: Microbroth dilution MIC of carbapenem with/without inhibitor; assay type: cell-based; conditions: for Meropenem activity (MIC) in presence of inhibitor: inhibitor 25 mg/L
Description: as §1

[5] = test system: K. pneumoniae K66-45 (NDM-1); assay: as above; assay type: cell-based
Description: as §1

human hepG2 cells = assay: In vitro toxicity in human hepG2 cells (AlamarBlue viability); assay type: cell-based
Description: For viability assays, cells were seeded in white 96-well Nunclon plates at a density of 20,000 cells/well and left overnight to adhere before experiments were conducted. Zn chelators dissolved in DMSO were added to white 96-well plates containing 20000 HepG2 cells/well at concentrations ranging from 1 to 1×10^−6 mM (max DMSO concentration never exceeded 1%) and incubated for 24 hours at 37° C. After 24 hours, AlamarBlue® cell viability reagent (Thermo Fisher, Carlsbad, USA) was added (10% final concentration) and incubated for 4 hours at 37° C.

[6] = test system: resistant gram-negative MBL-based bacteria; assay: MICx: adjuvant concentration giving carbapenem MIC ≤ 2 mg/L; assay type: cell-based; conditions: lowest concentration of compound X that results in a MIC value of ≤ 2 mg/L for carbapenem antibiotics
Description: as §1

[7] = test system: K. pneumoniae K66-45 and P. aeruginosa K34-7; assay: Microbroth dilution MIC, carbapenem + inhibitor, two resistant clinical isolates; assay type: cell-based; conditions: with meropenem
Description: • Plate bacterial strain(s) on appropriate media: • Gram-negative bacteria with ESBLs or carbapenemases: green agar plates with 100 mg/L ampicillin • Gram-negative bacteria without β-lactamases: green agar plates • Gram-positive bacteria (Staphylococci and Enterococci): blood agar plates • Incubate o.n. at 37° C. Day 2: Prepare the Bacterial Inoculum: • Prepare a 0.5 McFarland suspension of bacteria in 0.85% NaCl. (Should be used within 15 min of preparation). • Dilute the 0.5 McFarland suspension 1:100 into MH broth. Check the inoculum by diluting the prepared bacterial suspension 1:100 (10 μl bacterial suspension+990 μl 0.85% NaCl). Plate 10 μl of the dilution on MH agar plates (×2). Incubate o.n. at 37° C., count the colonies and calculate the final CFU/ml inoculum in the plate by multiplying the average number of colonies with 10000 and divide by 2. The final inoculum should be between 3-7×10^5 CFU/ml. • Add 50 μl of the prepared bacterial suspension to each well in the microtiter plate except negative growth control. Preparation of Compounds/Antibiotics • Calculate the desired concentration-range and volume of the compounds/antibiotics in the assay. […] Dilute the stock solution in MH broth. Make subsequent 2-fold dilutions in MH broth of the desired concentrations if a concentration range is to be tested (remember the extra dilution factor in the assay plate). Always include extra volume for pipetting. Take into consideration stock solutions that are made in buffers that have an effect on bacterial growth (e.g. DMSO).

VIM-2 = VIM-2 (Escherichia coli, UniProt Q5U7L7); assay type: biochemical; conditions: purified VIM-2, PD-10 column
Description: The eluent used was Chelex-treated HEPES 50 mM buffer, pH 7.5. […] In all experiments, 16 aliquots of 250 μL were taken from the PD-10 column runsout and enzyme activity was analysed. Enzyme activity was measured by adding Nitrocefin as a reporter substrate (final concentration of 50 μM).
To investigate if more extreme time-dependent and concentration-dependent conditions could restore enzyme activity, aliquots having final concentrations of 30 nM column-treated enzyme and 1000 μM Zn^2+ on ice and at room temperature over prolonged time.

[8] = human hepG2 cells, 24 hours, AlamarBlue, 8 replicates, read-out: IC50
[9] = human hepG2 cells, read-out: IC50h

Row | Compound | Meropenem activity in presence of inhibitor [1] [mg/L] | Meropenem activity in presence of inhibitor [2] [mg/L] | IC50 (human hepG2 cells; [9]) [µM] | MICx [6] | adjuvant effect at an inhibitor concentration of 25 mg/L [7] | other results
1 | COC(=O)[C@@H](C)NC(=O)[C@@H](C)NC(=O)Cn1cc(CN(Cc2ccccn2)Cc2ccccn2)nn1 [Example 194, Methyl (2-(4-((bis(pyridin-2-ylmethyl)amino)methyl)1H-1,2,3-triazol-1-yl)acetyl)-D-alanyl-D-alaninate, reference compound] | 32 | >64 | – | – | – | Meropenem activity in presence of inhibitor ([3]; inhibitor 25 mg/L): 32 mg/L; RF - no of colonies (K. pneumoniae K66-45; MEM 1 mg/L): tntc (tntc = too numerous to count, plates containing either confluent growth or >1000 colonies); RF - no of colonies (K. pneumoniae K66-45; MEM 2 mg/L): tntc (tntc = too numerous to count, plates containing either confluent growth or >1000 colonies); RF - no of colonies (K. pneumoniae K66-45; MEM 4 mg/L): tntc (tntc = too numerous to count, plates containing either confluent growth or >1000 colonies); RF - no of colonies (K. pneumoniae K66-45; MEM 8 mg/L): tntc (tntc = too numerous to count, plates containing either confluent growth or >1000 colonies)
2 | O=C(Cc1ccc(NC(=O)CN(CCN(Cc2ccccn2)Cc2ccccn2)Cc2ccccn2)cc1)NC[C@@H](O)CO [Example 23, (R)-2-((2-(bis(pyridin-2-ylmethyl)amino)ethyl)(pyridin-2-ylmethyl)amino)-N-(4-(2-(2,3-dihydroxypropylamino)-2-oxoethyl)phenyl)acetamide] | 32 | >64 | – | – | – | Meropenem activity in presence of inhibitor ([3]; inhibitor 25 mg/L): 1 mg/L; Meropenem activity (MIC) in presence of inhibitor [4]: 1 mg/L
3 | CN(C[C@H](O)[C@@H](O)[C@H](O)[C@H](O)CO)C(=O)Cc1ccc(NC(=O)CN(CCN(Cc2ccccn2)Cc2ccccn2)Cc2ccccn2)cc1 [Example 25, 2-(4-(2-((2-(bis(pyridin-2-ylmethyl)amino)ethyl)(pyridin-2-ylmethyl)amino)acetamido)phenyl)-N-methyl-N-(2,3,4,5,6-pentahydroxyhexyl)acetamide] | 64 | >64 | 113 | 31 µM | – | Meropenem activity in presence of inhibitor ([3]; inhibitor 25 mg/L): 2 mg/L; MIC ([5]; Klebsiella pneumoniae, inhibitor 31.25 μM, 50 μM and 100 μM, K. pneumoniae K66-45, read-out: MIC of MEM in the presence of inhibitor): 0.125 mg/L; Meropenem activity (MIC) in presence of inhibitor [4]: 2 mg/L; IC50 (human hepG2 cells; [8]): 113 µM; RF - no of colonies (K. pneumoniae K66-45; MEM 1 mg/L): 64 colonies
4 | C[C@H](CS)C(=O)N1CCC[C@H]1C(=O)O [Captopril, reference compound] | – | – | 33 | > 1000^d μM | – | Meropenem activity in presence of inhibitor ([3]; inhibitor 63 mg/L): 32 to 64 mg/L; Meropenem activity in presence of inhibitor ([5]; inhibitor 63 mg/L, K. pneumoniae K66-45 NDM-1): 64 mg/L; Meropenem activity in presence of inhibitor ([4]; inhibitor 63 mg/L): 32 mg/L
5 | COC(=O)c1ccc(CN(Cc2ccccn2)Cc2ccccn2)s1 [Example 180, Methyl 5-((bis(pyridin-2-ylmethyl)amino)methyl)thiophene-2-carboxylate] | – | – | – | – | completely abolishes the adjuvant effect | IC50 (human hepG2 cells; Homo sapiens, HepG2, 24 h): ~80 µM
6 | CN(C[C@H](O)[C@@H](O)[C@H](O)[C@H](O)CO)C(=O)c1ccc(CN(Cc2ccccc2)Cc2ccccc2)nc1 [Example 185, 6-((dibenzylamino)methyl)-N-methyl-N-((2S,3R,4R,5R)-2,3,4,5,6-pentahydroxyhexyl)nicotinamide] | – | – | – | – | completely abolishes the adjuvant effect | –
7 | CN(C[C@H](O)[C@@H](O)[C@H](O)[C@H](O)CO)C(=O)Cc1ccc(NC(=O)c2ccc(CN(Cc3ccccn3)Cc3ccccn3)nc2)cc1 [Example 99, 6-((bis(pyridin-2-ylmethyl)amino)methyl)-N-(4-(2-(methyl((2S,3R,4R,5R)-2,3,4,5,6-pentahydroxyhexyl)amino)-2-oxoethyl)phenyl)nicotinamide] | 32 | >64 | 217 | 31 µM | – | IC50 (human hepG2 cells; [8]): 217 µM
8 | CN(C[C@H](O)[C@@H](O)[C@H](O)[C@H](O)CO)C(=O)c1ccc(CN(Cc2ccccc2)Cc2ccccn2)nc1 [Example 187, 6-((benzyl(pyridin-2-ylmethyl)amino)methyl)-N-methyl-N-((2S,3R,4R,5R)-2,3,4,5,6-pentahydroxyhexyl)nicotinamide] | – | – | – | – | completely abolishes the adjuvant effect | –
9 | CN(C[C@H](O)[C@@H](O)[C@H](O)[C@H](O)CO)C(=O)c1ccc(CN(Cc2ccccn2)Cc2ccccn2)s1 [Example 182, 5-((bis(pyridin-2-ylmethyl)amino)methyl)-N-methyl-N-((2S,3R,4R,5R)-2,3,4,5,6-pentahydroxyhexyl)thiophene-2-carboxamide] | – | – | – | – | completely abolishes the adjuvant effect | –
10 | O=C(Cc1ccc(NC(=O)c2ccc(CN(Cc3ccccn3)Cc3ccccn3)nc2)cc1)NC(CO)(CO)CO [Example 100, 6-((bis(pyridin-2-ylmethyl)amino)methyl)-N-(4-(2-(1,3-dihydroxy-2-(hydroxymethyl)propan-2-ylamino)-2-oxoethyl)phenyl)nicotinamide] | 32 | >64 | 118 | 31 µM | – | IC50 (human hepG2 cells; [8]): > 100 µM
11 | O=C(O)CN(CCN(CC(=O)O)CC(=O)O)CC(=O)O [EDTA, ethylenediaminetetra-acetic acid, reference compound] | – | – | – | 15 µM | – | IC50 (human hepG2 cells; Homo sapiens, HepG2, estimated values (footnote c), read-out: IC50h): 30 µM; irreversibility of VIM-2 inhibition (VIM-2): did not inhibit VIM-2 irreversibly

— patent US11649222B2, “Compounds” (UNIVERSITETET I OSLO, priority 2016, dated 2023)
